Assay results taken from DBAASP.
Values after ≈ are worked out from the molar mass of the structure shown. Values joined by “and” are separate entries in the source; they are usually repeats but may differ in a detail not shown here. Identical values can stand only once.

Tests used:
Experiment in all cases: ≥ marks a high value that may be exact or a test limit, other limits are often not marked, values filed in µg/mL are converted to µM
[1] = test system: Escherichia coli ATCC 25922
[2] = test system: Staphylococcus aureus ATCC 25923
Pseudomonas aeruginosa = test system: Pseudomonas aeruginosa
Staphylococcus aureus = test system: Staphylococcus aureus
Escherichia coli = test system: Escherichia coli

Row | Compound | MIC [1] | also measured
1 | CC[C@H](C)[C@H](NC(=O)[C@H](C)NC(=O)CNC(=O)[C@H](C)NC(=O)[C@H](CCCCN)NC(=O)[C@H](CO)NC(=O)[C@H](C)NC(=O)[C@H](CCSC)NC(=O)CN)C(=O)N[C@@H](C)C(=O)NCC(=O)N[C@@H](CCCCN)C(=O)N[C@H](C(=O)N[C@@H](C)C(=O)N[C@@H](CCCCN)C(=O)N[C@H](C(=O)N[C@@H](C)C(=O)N[C@@H](CC(C)C)C(=O)N[C@@H](CCCCN)C(=O)N[C@@H](C)C(=O)N[C@@H](CC(C)C)C(=O)NCC(=O)NCC(=O)N[C@@H](CS)C(N)=O)C(C)C)[C@@H](C)CC [GMASKAGAIAGKIAKVALKALGGC] | 6.3 µM (≈ 13.8 µg/mL) | –
2 | CC[C@H](C)[C@H](NC(=O)[C@H](CCCN=C(N)N)NC(=O)[C@H](CCCCN)NC(=O)[C@H](CC(C)C)NC(=O)[C@H](C)NC(=O)CN)C(=O)N[C@@H](CCCCN)C(=O)N[C@H](C(=O)N[C@@H](CC(C)C)C(=O)N[C@@H](CC(C)C)C(N)=O)[C@@H](C)O [GALKRIKTLL] | > 38.7 µM | MIC [2]: > 38.7 µM
3 | C[C@@H](O)[C@H](NC(=O)[C@H](CO)NC(=O)[C@H](CO)NC(=O)[C@@H](N)CCCCN)C(=O)N[C@@H](CCCN=C(N)N)C(=O)NCC(=O)N[C@@H](CCCN=C(N)N)C(=O)N[C@@H](CCCCN)C(=O)N[C@@H](CO)C(=O)N[C@@H](CO)C(=O)N[C@@H](CCCN=C(N)N)C(=O)N[C@@H](CCCN=C(N)N)C(=O)N[C@@H](CCCCN)C(=O)N[C@@H](CCCCN)C(=O)O [KSSTRGRKSSRRKK] | 120 µM (≈ 200 µg/mL) | MIC [2]: > 308 µM
4 | CC(C)C[C@H](NC(=O)[C@H](Cc1ccccc1)NC(=O)[C@@H]1CCCN1C(=O)[C@H](Cc1c[nH]c2ccccc12)NC(=O)[C@H](Cc1c[nH]c2ccccc12)NC(=O)[C@H](Cc1c[nH]c2ccccc12)NC(=O)[C@@H]1CCCN1C(=O)[C@H](Cc1ccccc1)NC(=O)[C@H](CCCN=C(N)N)NC(=O)[C@H](CCCN=C(N)N)NC(=O)[C@@H](NC(=O)[C@@H](NC(=O)CN)[C@@H](C)O)C(C)C)C(=O)N[C@@H](CCCN=C(N)N)C(=O)N[C@@H](CCCN=C(N)N)C(=O)O [GTVRRFPWWWPFLRR] | 8 µM (≈ 16.5 µg/mL) | –
5 | CSCC[C@H](NC(=O)[C@@H](NC(=O)[C@H](CCCN=C(N)N)NC(=O)[C@H](Cc1ccccc1)NC(=O)[C@H](C)NC(=O)[C@H](C)NC(=O)[C@H](CCCCN)NC(=O)[C@H](CC(C)C)NC(=O)[C@H](Cc1c[nH]c2ccccc12)NC(=O)[C@H](C)NC(=O)[C@@H]1CCCN1C(=O)[C@@H](N)CCCN=C(N)N)C(C)C)C(=O)N[C@@H](CCCN=C(N)N)C(=O)N[C@@H](C)C(=O)N[C@@H](CS)C(=O)N[C@H](C(N)=O)C(C)C [RPAWLKAAFRVMRACV] | – | MIC (Pseudomonas aeruginosa): 4.27 µM (≈ 8 µg/mL)
6 | NC(=O)[C@H](CCCN=C(N)N)NC(=O)[C@H](CCCN=C(N)N)NC(=O)[C@H](Cc1c[nH]c2ccccc12)NC(=O)[C@H](Cc1c[nH]c2ccccc12)NC(=O)[C@H](CCCN=C(N)N)NC(=O)[C@H](CCCN=C(N)N)NC(=O)[C@H](Cc1c[nH]c2ccccc12)NC(=O)[C@H](Cc1c[nH]c2ccccc12)NC(=O)[C@H](Cc1c[nH]c2ccccc12)NC(=O)[C@H](CCCN=C(N)N)NC(=O)[C@H](CCCN=C(N)N)NC(=O)[C@@H](N)CCCN=C(N)N [RRRWWWRRWWRR] | – | MIC (Pseudomonas aeruginosa): 1.96 µM (≈ 4 µg/mL)
7 | CC[C@H](C)[C@H](NC(=O)[C@H](C)NC(=O)[C@H](CO)NC(=O)[C@@H](NC(=O)[C@@H](N)Cc1ccccc1)[C@@H](C)CC)C(=O)N[C@@H](C)C(=O)N[C@@H](CO)C(=O)N[C@@H](Cc1ccccc1)C(=O)N[C@@H](CC(C)C)C(=O)NCC(=O)N[C@@H](CCCCN)C(=O)N[C@@H](Cc1ccccc1)C(=O)N[C@@H](CC(C)C)C(=O)O [FISAIASFLGKFL] | – | MIC (Staphylococcus aureus): 130 µM (≈ 184 µg/mL)
8 | CC(C)C[C@H](NC(=O)[C@H](CCC(N)=O)NC(=O)[C@H](CCCCN)NC(=O)[C@H](CCCCN)NC(=O)[C@@H]1CCCN1C(=O)[C@H](C)N)C(=O)N[C@@H](CCCCN)C(=O)N[C@@H](Cc1c[nH]c2ccccc12)C(=O)O [APKKQLKW] | 16 µM (≈ 16 µg/mL) | –
9 | CC[C@H](C)[C@H](NC(=O)[C@H](C)NC(=O)CNC(=O)[C@H](C)NC(=O)[C@H](CCCCN)NC(=O)[C@H](CO)NC(=O)[C@H](C)NC(=O)[C@H](CCSC)NC(=O)CN)C(=O)N[C@@H](C)C(=O)NCC(=O)N[C@@H](CCCCN)C(=O)N[C@H](C(=O)N[C@@H](C)C(=O)N[C@@H](CCCCN)C(=O)N[C@H](C(=O)N[C@@H](C)C(=O)N[C@@H](Cc1c[nH]c2ccccc12)C(=O)N[C@@H](CCCCN)C(=O)N[C@@H](C)C(=O)N[C@@H](CC(C)C)C(=O)NCC(=O)NCC(=O)N[C@@H](CO)C(N)=O)C(C)C)[C@@H](C)CC [GMASKAGAIAGKIAKVAWKALGGS] | 12.5 µM (≈ 28 µg/mL) | –
10 | CC(C)[C@@H]1NC(=O)[C@@H]2CSSC[C@H](NC(=O)[C@H](Cc3ccc(O)cc3)NC(=O)[C@@H](N)CSSC[C@@H](C(=O)O)NC1=O)C(=O)N[C@@H](CCCN=C(N)N)C(=O)N[C@@H](CCCN=C(N)N)C(=O)N[C@@H](CCCN=C(N)N)C(=O)N[C@@H](Cc1ccccc1)C(=O)N2 [CYCRRRFCVC] | – | MIC (Escherichia coli): 10.8 µM (≈ 14.1 µg/mL)
11 | CC[C@H](C)[C@H](NC(=O)[C@H](CC(N)=O)NC(=O)[C@H](CCCCN)NC(=O)[C@H](CC(C)C)NC(=O)[C@H](CC(C)C)NC(=O)CN)C(=O)N[C@@H](CCCCN)C(=O)N[C@H](C(=O)N[C@@H](CC(C)C)C(=O)N[C@@H](CC(C)C)C(N)=O)[C@@H](C)O [GLLKNIKTLL] | 30.6 µM (≈ 34 µg/mL) | MIC [2]: 62 µM (≈ 68.9 µg/mL)
12 | CC(C)[C@H](NC(=O)[C@H](CC(N)=O)NC(=O)[C@H](CCCCN)NC(=O)[C@H](CCCN=C(N)N)NC(=O)[C@@H]1CCCN1C(=O)[C@H](C)N)C(=O)N[C@@H](CCCN=C(N)N)C(=O)N[C@@H](Cc1ccccc1)C(=O)O [APRKNVRF] | 130 µM (≈ 128 µg/mL) | –
13 | CC(C)C[C@H](NC(=O)[C@H](CCC(N)=O)NC(=O)[C@H](CCCCN)NC(=O)[C@H](CCCN=C(N)N)NC(=O)[C@H](Cc1ccccc1)NC(=O)[C@@H](N)CC(C)C)C(=O)N[C@@H](CCCCN)C(=O)N[C@@H](Cc1c[nH]c2ccccc12)C(=O)O [LFRKQLKW] | 1.79 µM (≈ 2 µg/mL) | –
14 | CC[C@H](C)[C@H](NC(=O)[C@H](CCCN=C(N)N)NC(=O)[C@H](C)NC(=O)[C@H](CC(C)C)NC(=O)[C@H](CC(C)C)NC(=O)CN)C(=O)N[C@@H](CCCCN)C(=O)N[C@H](C(=O)N[C@@H](CC(C)C)C(=O)N[C@@H](CC(C)C)C(N)=O)[C@@H](C)O [GLLARIKTLL] | 14.6 µM (≈ 16 µg/mL) | MIC [2]: 25.5 µM (≈ 28 µg/mL)
15 | CC[C@H](C)[C@H](NC(=O)[C@H](Cc1ccc(O)cc1)NC(=O)[C@H](Cc1c[nH]c2ccccc12)NC(=O)[C@H](CC(C)C)NC(=O)[C@H](Cc1c[nH]c2ccccc12)NC(=O)[C@H](CCCN=C(N)N)NC(=O)[C@@H](NC(=O)[C@@H](NC(=O)[C@H](CCCN=C(N)N)NC(=O)[C@H](Cc1ccccc1)NC(=O)[C@H](Cc1c[nH]c2ccccc12)NC(=O)[C@H](CCCN=C(N)N)NC(=O)[C@H](Cc1c[nH]c2ccccc12)NC(=O)[C@H](CC(C)C)NC(=O)[C@H](CCCN=C(N)N)NC(=O)[C@H](C)NC(=O)[C@H](Cc1c[nH]c2ccccc12)NC(=O)[C@@H](N)CCCCN)[C@@H](C)CC)[C@@H](C)O)C(=O)N[C@@H](CCCCN)C(N)=O [KWARLWRWFRITRWLWYIK] | – | MIC (Staphylococcus aureus): > 36.2 µM; MIC (Escherichia coli): > 36.2 µM
16 | CC[C@H](C)[C@H](NC(=O)CN)C(=O)N[C@@H](Cc1ccccc1)C(=O)N[C@@H](CC(C)C)C(=O)N[C@@H](CC(=O)O)C(=O)N[C@@H](CCCCN)C(=O)N[C@@H](CC(C)C)C(=O)N[C@@H](CCCCN)C(=O)N[C@@H](CC(N)=O)C(=O)N[C@@H](Cc1ccccc1)C(=O)N[C@@H](C)C(=O)N[C@@H](CCCCN)C(=O)NCC(=O)N[C@H](C(=O)N[C@@H](C)C(=O)N[C@@H](CCC(N)=O)C(=O)N[C@@H](CO)C(=O)N[C@@H](CC(C)C)C(=O)N[C@@H](CC(C)C)C(=O)N[C@@H](CC(N)=O)C(=O)N[C@@H](CCCCN)C(=O)N[C@@H](C)C(=O)N[C@@H](CO)C(=O)N[C@H]1CSSC[C@@H](C(=O)O)NC(=O)[C@H](CCC(N)=O)NC(=O)CNC(=O)[C@H](CO)NC(=O)[C@H](CC(C)C)NC(=O)[C@H](CCCCN)NC1=O)C(C)C [GIFLDKLKNFAKGVAQSLLNKASCKLSGQC] | 2 µM (≈ 6.36 µg/mL) | –
17 | CC[C@H](C)[C@H](NC(=O)[C@H](CCCN=C(N)N)NC(=O)[C@H](CCCCN)NC(=O)[C@H](CC(C)C)NC(=O)[C@H](CCSC)NC(=O)CN)C(=O)N[C@@H](CCCCN)C(=O)N[C@H](C(=O)N[C@@H](CC(C)C)C(=O)N[C@@H](CC(C)C)C(N)=O)[C@@H](C)O [GMLKRIKTLL] | 200 µM (≈ 234 µg/mL) | –
18 | CC[C@@H](C)[C@H](N=C(O)[C@H](CCCCN)N=C(O)[C@H](CS)N=C(O)[C@H](CCCCN)N=C(O)[C@H](CC(C)C)N=C(O)CN=C(O)C(CCC(=O)O)N=C(O)[C@H](CC(C)C)N=C(O)[C@H](CCCCN)N=C(O)CN=C(O)[C@H](C)N=C(O)[C@H](N=C(O)[C@H](CC(=O)O)N=C(O)[C@H](CCCCN)N=C(O)[C@H](C)N=C(O)[C@H](C)N=C(O)CN=C(O)C(CCCCN)N=C(O)C(CC(C)C)N=C(O)[C@H](N=C(O)C(CC(=O)O)N=C(O)[C@H](CC(C)C)N=C(O)[C@H](Cc1ccccc1)N=C(O)C(CC(C)C)N=C(O)CN)C(C)O)C(C)C)C(O)=N[C@H](C(O)=NCC(O)=N[C@H](CS)C(O)=N[C@H](CCCCN)C(O)=N[C@H](CC(C)C)C(=O)N1CCCC1C(=O)O)[C@@H](C)O (stereo partly specified) [GLFLDTLKGAAKDVAGKLEGLKCKITGCKLP] | – | MIC (Staphylococcus aureus): 60 µM (≈ 191 µg/mL)
19 | CC[C@H](C)[C@H](NC(=O)[C@H](CCCCN)NC(=O)[C@H](CC(C)C)NC(=O)[C@@H](NC(=O)[C@H](CCCCN)NC(=O)[C@H](C)N)C(C)C)C(=O)N[C@@H](CO)C(=O)N[C@@H](CCCN=C(N)N)C(=O)N[C@@H](CCCN=C(N)N)C(=O)N[C@@H](C)C(=O)N[C@@H](Cc1ccccc1)C(=O)N[C@@H](CCCN=C(N)N)C(=O)N[C@@H](CCCCN)C(N)=O [AKVLKISRRAFRK] | 22.5 µM and 63.6 µM | –
20 | CC(C)[C@H](NC(=O)[C@H](CC(N)=O)NC(=O)[C@H](CCCCN)NC(=O)[C@H](CCCN=C(N)N)NC(=O)[C@@H]1CCCN1C(=O)[C@H](C)N)C(=O)N[C@@H](CCCCN)C(=O)N[C@@H](Cc1c[nH]c2ccccc12)C(=O)O [APRKNVKW] | 64.1 µM (≈ 64 µg/mL) | –
21 | CC(C)C[C@H](NC(=O)[C@H](CC(C)C)NC(=O)[C@H](CCCCN)NC(=O)[C@H](CCCCN)NC(=O)[C@H](CC(C)C)NC(=O)[C@H](Cc1c[nH]c2ccccc12)NC(=O)[C@H](CCCCN)NC(=O)[C@H](CC(C)C)NC(=O)[C@@H](N)Cc1ccccc1)C(N)=O [FLKWLKKLL] | 6.73 µM and 13.5 µM | –
